Assay results as given in patent US6743211B1, “Devices and methods for enhanced microneedle penetration of biological barriers” (Georgia Tech Research Corporation, priority 1999, dated 2004).

Format: in vitro ADME, human
Method: To determine if microfabricated microneedles could be used to enhance transdermal drug delivery, arrays of microneedles were made using a deep plasma etching technique. Their ability to penetrate human skin without breaking was tested and the resulting changes in transdermal transport were measured.
Arrays of microneedles were fabricated having extremely sharp tips (radius of curvature less than 1 μm), and are approximately 150 μm long. Because the skin surface is not flat due to dermatoglyphics and hair, the full length of these microneedles will not penetrate the skin. All experiments were performed at room temperature (23±2° C.).
To quantitatively assess the ability of microneedles to increase transdermal transport, calcein permeability of human epidermis with and without inserted microneedle arrays was measured. Calcein crosses skin very poorly under normal circumstances and therefore represents an especially difficult compound to deliver.
Insertion of microneedles into skin was capable of dramatically increasing permeability to calcein. When microneedles were inserted and left embedded in the skin, calcein permeability was increased by more than 1000-fold. Insertion of microneedles for 10 s, followed by their removal, yielded an almost 10,000-fold increase. […]

Passive permeability across unaltered skin: very low | Increase in skin permeability to calcein (human): about 25,000 fold
Structure (SMILES): O=C(O)CN(CC(=O)O)Cc1cc2c(cc1O)Oc1cc(O)c(CN(CC(=O)O)CC(=O)O)cc1C21OC(=O)c2ccccc21 [Calcein]
